Test results from patent US9079866B2, “Flap modulators” (JANSSEN PHARMACEUTICA NV, priority 2013, dated 2015).
pIC50, pKi: −log10 of the molar value. Structures can show the parent of a compound that is named as a salt. Where two headings read alike, the source gives them in different places.

Key:
human FLAP = human FLAP (Homo sapiens (Human), UniProt P20292); assay: FLAP binding assay (HTRF format)
Procedure, shortened: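 Samples were run in duplicate on each of two assay plates, the results were averaged, and the signal was expressed as an HTRF ratio.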

[1] = system: leukotriene pathway in human whole blood (LTB4 levels); assay: Human whole blood assay (A23187-stimulated LTB4); type: cell-based; conditions: Homo sapiens, read-out: LTB4 IC50 1:1
Procedure, shortened: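 Heparinised human whole blood diluted 1:1 in RPMI, pre-incubated 15 min at 37° Celsius with compound, then stimulated with A23187 (7 μg/mL) for 30 min at 37° Celsius. Plasma LTB4 measured by immunoassay kit; IC50 from 4-parameter fit; single replicate per plate, at least one healthy donor.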

[2] = human whole blood diluted 1:1, A23187-stimulated
[3] = human FLAP wild type, HTRF format, average of two plates, duplicates
[4] = human whole blood diluted 1:1 in RPMI, A23187-stimulated LTB4

human FLAP, sequence (P20292 whole entry): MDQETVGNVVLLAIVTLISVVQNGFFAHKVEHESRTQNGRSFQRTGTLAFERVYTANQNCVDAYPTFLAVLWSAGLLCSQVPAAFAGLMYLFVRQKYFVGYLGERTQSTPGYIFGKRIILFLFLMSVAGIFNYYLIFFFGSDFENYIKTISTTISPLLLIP

pKi (human FLAP; wild type FLAP, HTRF format) | pIC50 [1, 2] | pKi (human FLAP; [3]) | pIC50 [1, 4] | Structure (SMILES) | pKi (human FLAP; read-out: FLAP Binding wild type HTRF Ki)
8.70 | 6.95 | – | – | CC(C)(C)NS(=O)(=O)c1ccccc1-c1ccc(-c2cnc3cc[nH]c3c2)c(F)c1 [Example 425, N-tert-Butyl-3′-fluoro-4′-(1H-pyrrolo[3,2-b]pyridin-6-yl)biphenyl-2-sulfonamide] | –
7.26 | 5.30 | – | – | CC(C)(C)NS(=O)(=O)c1ccccc1-c1ccc(-c2cn3cccc(F)c3n2)c(F)c1 [Example 580, N-tert-Butyl-3′-fluoro-4′-(8-fluoroimidazo[1,2-a]pyridin-2-yl)biphenyl-2-sulfonamide] | –
– | – | 7.08 | 5.95 | Nc1cnc(-c2ccc(-c3ccccc3S(=O)(=O)NC3CCNCC3)cc2F)cn1 [Example 123, 4′-(5-Aminopyrazin-2-yl)-3′-fluoro-N-piperidin-4-ylbiphenyl-2-sulfonamide] | –
– | – | 7.05 | 6.71 | C[C@@H]1CNCCN1S(=O)(=O)c1ccccc1-c1ccc(-c2cnc(N)nc2)c(F)c1 [Example 247, 5-(3-Fluoro-2′-{[(2R)-2-methylpiperazin-1-yl]sulfonyl}biphenyl-4-yl)pyrimidin-2-amine] | –
8.00 | 6.95 | – | – | CC(C)(C)NS(=O)(=O)c1ccccc1-c1ccc(-c2cnc(N)c(N)c2)c(F)c1 [Example 448, N-tert-Butyl-4′-(5,6-diaminopyridin-3-yl)-3′-fluorobiphenyl-2-sulfonamide] | –
7.82 | 6.31 | – | – | CC(C)(C)NS(=O)(=O)c1ccccc1-c1ccc(-c2cnc(N)cn2)cc1F [Example 574, 4′-(5-Aminopyrazin-2-yl)-N-tert-butyl-2′-fluorobiphenyl-2-sulfonamide] | –
6.83 | 6.60 | – | – | Cc1ccnc(Oc2ccccc2-c2ccc(-c3cnc(N)nc3)c(F)c2)n1 [Example 546, 5-{3-Fluoro-2′-[(4-methylpyrimidin-2-yl)oxy]biphenyl-4-yl}pyrimidin-2-amine] | –
– | – | 6.47 | < 5.00 | Nc1ncc(-c2ccc(-c3ccccc3S(=O)(=O)Cc3nc4ccccc4c(=O)[nH]3)cc2F)cn1 [Example 317, 2-(((4′-(2-Aminopyrimidin-5-yl)-3′-fluoro-[1,1′-biphenyl]-2-yl)sulfonyl)methyl)quinazolin-4(3H)-one] | –
7.81 | 6.88 | – | – | Nc1cnc(Sc2ccccc2-c2ccc(-c3cnc(N)nc3)c(F)c2)cn1 [Example 744, 5-{2′-[(5-Aminopyrazin-2-yl)sulfanyl]-3-fluorobiphenyl-4-yl}pyrimidin-2-amine] | –
– | – | 8.40 | 7.19 | Nc1cncc(Sc2ccccc2-c2ccc(-c3cnc(N)nc3)c(F)c2)n1 [Example 336, 5-{2′-[(6-Aminopyrazin-2-yl)sulfanyl]-3-fluorobiphenyl-4-yl}pyrimidin-2-amine formate salt] | –
– | – | 7.96 | 5.45 | CS(=O)(=O)N1CCN(S(=O)(=O)c2ccccc2-c2ccc(-c3cnc(N)cn3)c(F)c2)CC1 [Example 56, 5-(3-Fluoro-2′-{[4-(methylsulfonyl)piperazin-1-yl]sulfonyl}biphenyl-4-yl)pyrazin-2-amine] | –
9.00 | 7.77 | – | – | CC(C)(C)NS(=O)(=O)c1ccccc1-c1ccc(-c2nnc(N)s2)c(F)c1 [Example 438, 4′-(5-Amino-1,3,4-thiadiazol-2-yl)-N-(tert-butyl)-3′-fluoro-[1,1′-biphenyl]-2-sulfonamide] | –
7.31 | 6.99 | – | – | CC(C)(C)NS(=O)(=O)c1ccccc1-c1ccc(-c2cnc(N)nc2)nc1 [Example 693, 2-[6-(2-Aminopyrimidin-5-yl)pyridin-3-yl]-N-tert-butylbenzenesulfonamide] | –
8.14 | 7.17 | – | – | Nc1cc(Oc2ccccc2-c2ccc(-c3cnc(N)nc3)c(F)c2)ccn1 [Example 639, 5-{2′-[(2-Aminopyridin-4-yl)oxy]-3-fluorobiphenyl-4-yl}pyrimidin-2-amine] | –
– | – | 6.53 | 6.29 | C[C@@H](CO)NS(=O)(=O)Cc1ccccc1-c1ccc(-c2cnc(N)cn2)c(F)c1 [Example 224, (S)-1-(4′-(5-Aminopyrazin-2-yl)-3′-fluoro-[1,1′-biphenyl]-2-yl)-N-(1-hydroxypropan-2-yl)-methanesulfonamide] | –
– | – | 7.77 | 7.68 | C[C@@H]1CNCCN1S(=O)(=O)c1ccccc1-c1ccc(-c2cnc(N)cn2)c(F)c1 [Example 145, (R)-5-(3-Fluoro-2′-((2-methylpiperazin-1-yl)sulfonyl)-[1,1′-biphenyl]-4-yl)pyrazin-2-amine] | –

pKi (human FLAP; wild type FLAP, HTRF format) | pIC50 [1, 2] | pKi (human FLAP; [3]) | pIC50 [1, 4] | Structure (SMILES) | pKi (human FLAP; read-out: FLAP Binding wild type HTRF Ki)
– | – | 8.70 | 7.59 | CC(C)(NS(=O)(=O)c1ccccc1-c1ccc(-c2ccc(N)nc2)c(F)c1)C(F)(F)F [Example 350, 4′-(6-Aminopyridin-3-yl)-3′-fluoro-N-(1,1,1-trifluoro-2-methylpropan-2-yl)-[1,1′-biphenyl]-2-sulfonamide] | –
7.49 | 6.90 | – | – | C[C@H](O)CNS(=O)(=O)c1ccccc1-c1ccc(-c2ncc(N)nc2C#N)c(F)c1 [Example 707, 4′-(5-Amino-3-cyanopyrazin-2-yl)-3′-fluoro-N-[(2S)-2-hydroxypropyl]biphenyl-2-sulfonamide] | –
– | – | 7.85 | 6.95 | Nc1cnc(-c2ccc(-c3ccccc3NS(=O)(=O)C3CCC3)cc2F)cn1 [Example 40, N-(4′-(5-Aminopyrazin-2-yl)-3′-fluoro-[1,1′-biphenyl]-2-yl)cyclobutanesulfonamide] | –
– | – | 8.30 | 6.00 | Nc1cnc(-c2ccc(-c3ccccc3S(=O)(=O)N3CCN(C(=O)C4CC4)CC3)cc2F)cn1 [Example 58, 5-(2′-{[4-(Cyclopropylcarbonyl)piperazin-1-yl]sulfonyl}-3-fluorobiphenyl-4-yl)pyrazin-2-amine] | –
– | – | 6.69 | 5.49 | Nc1ncc(-c2ccc(-c3ccccc3S(=O)(=O)CCCS(=O)(=O)C3CCCCC3)cc2F)cn1 [Example 319, 5-(2′-{[3-(Cyclohexylsulfonyl)propyl]sulfonyl}-3-fluorobiphenyl-4-yl)pyrimidin-2-amine] | –
7.92 | 6.46 | – | – | Cc1nc(N)ncc1-c1ccc(-c2ccccc2S(=O)(=O)NC(C)(C)C)cc1F [Example 454, 4-′-(2-Amino-4-methylpyrimidin-5-yl)-N-tert-butyl-3′-fluorobiphenyl-2-sulfonamide trifluoroacetic acid salt] | –
7.75 | 6.57 | – | – | C[C@H](NC(=O)c1cc(C(F)(F)F)ccc1-c1ccc(-c2cnc(N)nc2)c(F)c1)C(F)(F)F [Example 788, 2-[4-(2-Aminopyrimidin-5-yl)-3-fluoro-phenyl]-5-(trifluoromethyl)-N-[(1S)-2,2,2-trifluoro-1-methyl-ethyl]benzamide] | –
– | – | 8.05 | 6.98 | CC(C)[C@H](CO)NS(=O)(=O)c1ccccc1-c1ccc(-c2cnc(N)nc2)c(F)c1 [Example 273, 4′-(2-Aminopyrimidin-5-yl)-3′-fluoro-N-[(1R)-1-(hydroxymethyl)-2-methylpropyl]biphenyl-2-sulfonamide trifluoroacetic acid salt] | –
– | – | 8.70 | 8.10 | CC(C)[C@@H](CO)NS(=O)(=O)c1ccccc1-c1ccc(-c2cnc(N)cn2)c(F)c1 [Example 148, (S)-4′-(5-Aminopyrazin-2-yl)-3′-fluoro-N-(1-hydroxy-3-methylbutan-2-yl)-[1,1′-biphenyl]-2-sulfonamide] | –
6.51 | 5.81 | – | – | Nc1ncc(-c2ccc(-c3cccnc3O[C@H]3CC[C@H](N)CC3)cc2F)cn1 [Example 651, 5-(4-{2-[(trans-4-Aminocyclohexyl)oxy]pyridin-3-yl}-2-fluorophenyl)pyrimidin-2-amine] | –
– | – | 7.54 | 5.98 | Nc1cnc(-c2ccc(-c3ccccc3S(=O)(=O)N[C@H]3CCNC3)cc2F)cn1 [Example 154, (S)-4′-(5-Aminopyrazin-2-yl)-3′-fluoro-N-(pyrrolidin-3-yl)-[1,1′-biphenyl]-2-sulfonamide] | –
– | – | 7.96 | 6.93 | Nc1cnc(-c2ccc(-c3ccccc3S(=O)(=O)N3CCN4CCCC4C3)cc2F)cn1 (racemic) [Example 61, racemic 5-[3-Fluoro-2′-(hexahydropyrrolo[1,2-a]pyrazin-2(1H)-ylsulfonyl)biphenyl-4-yl]pyrazin-2-amine] | –
7.72 | 6.78 | – | – | CCN(c1ccccc1-c1ccc(-c2cnc(N)cn2)c(F)c1)S(C)(=O)=O [Example 496, N-[4′-(5-Aminopyrazin-2-yl)-3′-fluorobiphenyl-2-yl]-N-ethylmethanesulfonamide] | –
– | – | 7.68 | 7.16 | Nc1cnc(-c2ccc(-c3ccccc3S(=O)(=O)N3CCNC(=O)C3)cc2F)cn1 [Example 66, 4-{[4′-(5-Aminopyrazin-2-yl)-3′-fluorobiphenyl-2-yl]sulfonyl}piperazin-2-one] | –
– | – | 8.30 | 6.85 | NC1CCN(S(=O)(=O)c2ccccc2-c2ccc(-c3cnc4[nH]ccc4n3)c(F)c2)CC1 [Example 381, 1-{[3′-Fluoro-4′-(5H-pyrrolo[2,3-b]pyrazin-2-yl)biphenyl-2-yl]sulfonyl}piperidin-4-amine] | –
6.81 | 5.83 | – | – | COc1ncccc1-c1ccc(-c2cnc(N)cn2)c(F)c1 [Example 404, 5-[2-Fluoro-4-(2-methoxypyridin-3-yl)phenyl]pyrazin-2-amine] | –

Structure (SMILES) | pKi (human FLAP; wild type FLAP, HTRF format) | pIC50 [1, 2] | pKi (human FLAP; [3]) | pIC50 [1, 4] | pKi (human FLAP; read-out: FLAP Binding wild type HTRF Ki)
Nc1ccnc(Sc2ccccc2-c2ccc(-c3cnc(N)nc3)c(F)c2)n1 [Example 330, 5-{2′-[(4-Aminopyrimidin-2-yl)sulfanyl]-3-fluorobiphenyl-4-yl}pyrimidin-2-amine formate salt] | – | – | – | 7.06 | 7.92
